Measured values: patent US20170190705A1, “Compositions and Methods for Inhibiting BMP” (THE BRIGHAM AND WOMAN'S HOSPITAL, INC., priority 2014, published 2017)

What was measured:
Assay type in all cases: biochemical
[1] = target: PDGFRα (Homo sapiens, UniProt P16234); test: Kinome profiling PDGFRα; conditions: read-out: Inhibitory activity PDGFRα; for inhibition at 0.1 µM: 100 nM
Experimental: (§1) . The kinome-wide selectivity was determined following the methods previously reported by Mohedas et al., ACS Chem Biol 2013, 8, 1291-1302 and Sanvitale et al., PLoS One 2013, 8, e62721.

[2] = target: T1, MUSK (Homo sapiens, UniProt O15146); test: Kinome profiling MUSK; conditions: read-out: Inhibitory activity MUSK; for inhibition at 0.1 µM: 100 nM
T1 sequence (O15146 24-869): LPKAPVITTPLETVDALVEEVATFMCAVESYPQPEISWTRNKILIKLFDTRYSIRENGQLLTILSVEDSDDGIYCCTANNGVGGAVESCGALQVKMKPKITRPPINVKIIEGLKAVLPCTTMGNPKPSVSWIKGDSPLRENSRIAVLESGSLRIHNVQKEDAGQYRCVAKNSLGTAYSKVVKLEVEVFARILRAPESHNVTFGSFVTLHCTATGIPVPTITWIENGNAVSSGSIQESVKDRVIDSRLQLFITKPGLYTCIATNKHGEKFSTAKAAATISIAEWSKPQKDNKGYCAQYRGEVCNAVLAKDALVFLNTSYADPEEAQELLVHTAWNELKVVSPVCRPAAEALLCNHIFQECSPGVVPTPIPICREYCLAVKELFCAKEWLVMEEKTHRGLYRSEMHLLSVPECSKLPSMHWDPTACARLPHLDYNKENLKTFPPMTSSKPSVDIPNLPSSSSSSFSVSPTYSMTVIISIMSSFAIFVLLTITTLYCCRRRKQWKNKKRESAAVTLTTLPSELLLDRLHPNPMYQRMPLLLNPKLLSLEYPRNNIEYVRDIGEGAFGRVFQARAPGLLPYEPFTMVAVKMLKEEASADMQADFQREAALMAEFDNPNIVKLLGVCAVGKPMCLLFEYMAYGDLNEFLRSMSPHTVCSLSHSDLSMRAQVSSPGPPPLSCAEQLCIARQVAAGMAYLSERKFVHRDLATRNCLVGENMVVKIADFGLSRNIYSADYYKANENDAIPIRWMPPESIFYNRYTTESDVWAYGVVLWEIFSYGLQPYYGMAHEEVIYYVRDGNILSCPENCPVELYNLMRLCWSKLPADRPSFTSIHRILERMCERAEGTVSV
Experimental: as §1

[3] = target: RSK4 (Homo sapiens, UniProt Q9UK32); test: Kinome profiling RSK4; conditions: read-out: Inhibitory activity RSK4; for inhibition at 0.1 µM: 100 nM
Experimental: as §1

[4] = target: T2, CAMK4 (Homo sapiens, UniProt Q16566); test: Kinome profiling CAMK4; conditions: read-out: Inhibitory activity CAMK4; for inhibition at 0.1 µM: 100 nM
T2 sequence (Q16566 1-473): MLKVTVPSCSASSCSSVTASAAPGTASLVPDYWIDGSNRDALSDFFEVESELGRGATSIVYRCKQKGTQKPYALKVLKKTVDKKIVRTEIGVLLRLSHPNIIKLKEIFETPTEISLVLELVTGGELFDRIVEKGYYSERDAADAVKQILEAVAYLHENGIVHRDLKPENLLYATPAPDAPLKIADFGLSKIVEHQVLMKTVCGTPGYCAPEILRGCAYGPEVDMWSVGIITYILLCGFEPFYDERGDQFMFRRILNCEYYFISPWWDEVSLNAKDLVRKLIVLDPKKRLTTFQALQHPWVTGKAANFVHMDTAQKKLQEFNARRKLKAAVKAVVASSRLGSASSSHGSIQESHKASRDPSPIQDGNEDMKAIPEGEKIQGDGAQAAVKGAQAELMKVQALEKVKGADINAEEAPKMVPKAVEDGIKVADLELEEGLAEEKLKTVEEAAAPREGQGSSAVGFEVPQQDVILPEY
Experimental: as §1

[5] = target: T3, IKK-α (Homo sapiens, UniProt O15111); test: Kinome profiling IKK-α; conditions: read-out: Inhibitory activity IKK-α; for inhibition at 0.1 µM: 100 nM
T3 sequence (O15111 1-745): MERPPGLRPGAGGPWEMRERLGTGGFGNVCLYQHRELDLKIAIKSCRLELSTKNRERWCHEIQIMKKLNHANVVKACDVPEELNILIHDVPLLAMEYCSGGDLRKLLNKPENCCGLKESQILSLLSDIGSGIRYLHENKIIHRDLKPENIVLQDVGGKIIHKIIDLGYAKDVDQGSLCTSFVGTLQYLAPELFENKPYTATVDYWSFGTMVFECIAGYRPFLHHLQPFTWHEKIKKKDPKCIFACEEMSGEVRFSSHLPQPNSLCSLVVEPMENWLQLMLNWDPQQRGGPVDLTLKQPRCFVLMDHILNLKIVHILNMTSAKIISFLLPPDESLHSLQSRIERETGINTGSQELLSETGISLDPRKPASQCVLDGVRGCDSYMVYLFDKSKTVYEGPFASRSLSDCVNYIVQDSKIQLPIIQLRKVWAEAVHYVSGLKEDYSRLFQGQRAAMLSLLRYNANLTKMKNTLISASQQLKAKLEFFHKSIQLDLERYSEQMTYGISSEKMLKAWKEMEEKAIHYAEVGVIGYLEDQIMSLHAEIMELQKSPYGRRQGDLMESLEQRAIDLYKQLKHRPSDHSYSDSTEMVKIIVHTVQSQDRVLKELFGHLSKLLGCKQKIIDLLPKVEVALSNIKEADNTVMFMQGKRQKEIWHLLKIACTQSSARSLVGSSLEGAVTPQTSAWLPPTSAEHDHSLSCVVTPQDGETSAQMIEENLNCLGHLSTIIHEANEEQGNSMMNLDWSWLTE
Experimental: as §1

Chain of PDGFRα (P16234 24-1089): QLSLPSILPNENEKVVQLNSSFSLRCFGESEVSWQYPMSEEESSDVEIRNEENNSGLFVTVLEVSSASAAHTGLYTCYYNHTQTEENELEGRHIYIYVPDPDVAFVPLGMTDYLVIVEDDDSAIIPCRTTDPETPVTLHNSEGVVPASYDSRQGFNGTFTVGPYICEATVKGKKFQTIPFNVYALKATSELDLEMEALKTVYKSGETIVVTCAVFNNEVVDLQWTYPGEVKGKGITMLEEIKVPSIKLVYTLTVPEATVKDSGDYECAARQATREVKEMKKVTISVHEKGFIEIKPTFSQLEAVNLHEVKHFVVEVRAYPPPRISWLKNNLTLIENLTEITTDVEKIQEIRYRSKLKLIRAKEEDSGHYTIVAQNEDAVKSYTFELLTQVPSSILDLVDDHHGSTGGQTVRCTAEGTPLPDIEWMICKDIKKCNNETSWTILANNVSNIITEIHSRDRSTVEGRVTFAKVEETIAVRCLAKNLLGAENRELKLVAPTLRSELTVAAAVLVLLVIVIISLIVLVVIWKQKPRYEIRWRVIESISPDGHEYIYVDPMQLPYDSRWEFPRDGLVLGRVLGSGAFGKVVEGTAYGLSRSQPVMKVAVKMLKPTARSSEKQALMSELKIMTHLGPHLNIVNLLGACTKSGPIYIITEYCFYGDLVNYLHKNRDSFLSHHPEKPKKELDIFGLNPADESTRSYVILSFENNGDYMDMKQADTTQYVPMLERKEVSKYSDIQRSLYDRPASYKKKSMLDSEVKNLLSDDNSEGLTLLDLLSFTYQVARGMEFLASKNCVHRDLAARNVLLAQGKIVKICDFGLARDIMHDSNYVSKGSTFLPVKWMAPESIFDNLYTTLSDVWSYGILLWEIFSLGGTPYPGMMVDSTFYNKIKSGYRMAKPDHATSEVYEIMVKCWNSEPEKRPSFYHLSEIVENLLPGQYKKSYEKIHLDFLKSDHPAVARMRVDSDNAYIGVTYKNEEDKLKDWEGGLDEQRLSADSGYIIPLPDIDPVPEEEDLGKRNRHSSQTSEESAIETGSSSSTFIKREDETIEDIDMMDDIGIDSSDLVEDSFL
Chain of RSK4 (Q9UK32 whole entry): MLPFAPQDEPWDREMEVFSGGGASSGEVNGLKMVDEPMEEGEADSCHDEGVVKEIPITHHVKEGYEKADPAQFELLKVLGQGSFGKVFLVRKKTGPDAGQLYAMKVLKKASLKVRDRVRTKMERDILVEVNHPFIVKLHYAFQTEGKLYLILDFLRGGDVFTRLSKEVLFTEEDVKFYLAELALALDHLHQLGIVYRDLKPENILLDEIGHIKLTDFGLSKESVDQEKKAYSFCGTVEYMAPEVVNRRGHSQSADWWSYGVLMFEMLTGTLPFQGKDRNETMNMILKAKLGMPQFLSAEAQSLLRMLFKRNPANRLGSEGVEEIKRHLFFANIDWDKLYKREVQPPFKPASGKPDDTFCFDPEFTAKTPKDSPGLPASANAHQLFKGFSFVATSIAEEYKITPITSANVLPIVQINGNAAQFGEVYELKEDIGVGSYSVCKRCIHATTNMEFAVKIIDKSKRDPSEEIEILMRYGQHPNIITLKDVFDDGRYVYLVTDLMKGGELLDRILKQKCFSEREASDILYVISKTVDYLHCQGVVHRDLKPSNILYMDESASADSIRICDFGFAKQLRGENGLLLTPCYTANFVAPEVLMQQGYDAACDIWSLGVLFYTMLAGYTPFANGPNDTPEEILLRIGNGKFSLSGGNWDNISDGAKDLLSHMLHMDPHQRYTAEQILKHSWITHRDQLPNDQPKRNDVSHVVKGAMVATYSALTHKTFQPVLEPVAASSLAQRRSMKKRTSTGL

COc1cc(-c2cc(-c3ccc(N4CCNCC4)cc3)cnc2C)cc(OC)c1OC [Compound 10, 1-(4-(6-methyl-5-(3,4,5-trimethoxyphenyl)pyridin-3-yl)phenyl)piperazine]
inhibition at 0.1 µM [1]: 9%
inhibition at 1 µM [1]: 40%
inhibition at 0.1 µM [2]: 2%
inhibition at 1 µM [2]: 2%
inhibition at 0.1 µM [3]: 1%
inhibition at 1 µM [3]: 1%
inhibition at 0.1 µM [4]: 0%
inhibition at 1 µM [4]: -1%
inhibition at 0.1 µM [5]: 3%
inhibition at 1 µM [5]: 4%

COc1cc(-c2cc(-c3ccc(N4CCNCC4)cc3)cnc2N)cc(OC)c1OC [Compound 15, 5-(4-(piperazin-1-yl)phenyl)-3-(3,4,5-trimethoxyphenyl)pyridin-2-amine]
inhibition at 0.1 µM [1]: 39%
inhibition at 1 µM [1]: 76%
inhibition at 0.1 µM [2]: 1%
inhibition at 1 µM [2]: 5%
inhibition at 0.1 µM [3]: 1%
inhibition at 1 µM [3]: 2%
inhibition at 0.1 µM [4]: 21%
inhibition at 1 µM [4]: -1%
inhibition at 0.1 µM [5]: -1%
inhibition at 1 µM [5]: -2%
